Experimental data as given in patent US8202902B2, “Bivalent SMAC mimetics and the uses thereof” (The Regents of the University of Michigan, priority 2006, dated 2012).

Legend:
[1] = test system: MDA-MB-231 human breast cancer cell line; test: Cell growth inhibition, WST-8 assay, MDA-MB-231; type: cell-based; details: MDA-MB-231, read-out: IC50 values (nM) In WST-assay (MDA-MB-231)
Method: (§1) The rate of cell growth inhibition after treatment with different concentrations of the compound was determined using a WST-8 kit (2-(2-methoxy-4-nitrophenyl)-3-(4-nitrophenyl)-5-(2, 4 disulfophenyl)-2H-tetrazolium monosodium salt; Dojindo Molecular Technologies, Inc., Gaithersburg, Md.). WST-8 was added at a final concentration of 10% to each well, and then the plates were incubated at 37° C. for 2-3 hrs. The absorbance of the samples was measured at 450 nm using a ULTRA Tecan Reader (Molecular Device).

[2] = biological target: T1, human XIAP protein (residues 120-356) (Homo sapiens, UniProt P98170); test: Fluorescence-polarization-based binding assay to XIAP protein (Smac2-F tracer); details: read-out: Binding to XIAP IC50 values
T1 construct: human XIAP protein (residues 120-356) (10 nM)
Method: The polarization values were measured after 2 hours incubation, using the Ultra plate reader. […] Curve fitting is performed using GraphPad Prism® software.

[3] = test system: SK-OV-3; test: Cell growth inhibition, WST assay, SK-OV-3; type: cell-based; details: Homo sapiens
Method: as §1, with “Cells were seeded in 96-well flat bottom cell culture plates at a density of 3000 cells/well with a tested compound and incubated at 37° C. in an atmosphere of 95% air and 5% CO2 for 4 days. The rate” for “The rate”

T1 sequence (P98170 120-356): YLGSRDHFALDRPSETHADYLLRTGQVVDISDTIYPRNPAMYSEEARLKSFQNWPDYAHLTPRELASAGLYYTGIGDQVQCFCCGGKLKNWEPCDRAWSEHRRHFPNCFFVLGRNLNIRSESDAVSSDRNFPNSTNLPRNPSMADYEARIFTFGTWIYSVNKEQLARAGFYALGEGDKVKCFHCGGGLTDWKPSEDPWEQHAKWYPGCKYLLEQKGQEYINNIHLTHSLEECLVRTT

Row | Compound | IC50 [1] | IC50 [2] | IC50 [3]
1 | CN[C@@H](C)C(=O)N[C@H]1CC[C@H](n2cc(COCc3cn([C@H]4CC[C@H](NC(=O)[C@H](C)NC)C(=O)N5[C@H](CC[C@H]5C(=O)N[C@@H]5CCCc6ccccc65)C4)nn3)nn2)C[C@H]2CC[C@@H](C(=O)N[C@@H]3CCCc4ccccc43)N2C1=O (stereo in doubt) [SH-172] | < 1000 nM | < 10 nM | 
2 | CN[C@@H](C)C(=O)N[C@H]1CCCC[C@H]2CC[C@@H](C(=O)N[C@H](COCCn3cc(COC[C@@H](NC(=O)[C@@H]4CC[C@@H]5CCCC[C@H](NC(=O)[C@H](C)NC)C(=O)N54)c4ccccc4)nn3)c3ccccc3)N2C1=O [SH-143] |  | < 50 nM | 
3 | CN[C@@H](C)C(=O)N[C@H]1CCCC[C@H]2CC[C@@H](C(=O)N[C@H](COCc3cn([C@@H]4CC[C@H](NC(=O)[C@H](C)NC)C(=O)N5[C@H](CC[C@H]5C(=O)N[C@@H]5CCCc6ccccc65)C4)nn3)c3ccccc3)N2C1=O [SH-146] |  | < 50 nM | 
4 | CN[C@@H](C)C(=O)N[C@H]1CC[C@@H](n2cc(COCc3cn([C@@H]4CC[C@H](NC(=O)[C@H](C)NC)C(=O)N5[C@H](CC[C@H]5C(=O)N[C@H]5CCCc6ccccc65)C4)nn3)nn2)C[C@H]2CC[C@@H](C(=O)NC3CCCc4ccccc43)N2C1=O (stereo partly shown) [SH-153] | < 1000 nM | < 10 nM | 
5 | CN[C@@H](C)C(=O)N[C@H]1CCCC[C@H]2CC[C@@H](C(=O)N[C@@H](c3ccccc3)c3ccc(CCCn4cc(COCc5cn(CCCc6ccc([C@@H](NC(=O)[C@@H]7CC[C@@H]8CCCC[C@H](NC(=O)[C@H](C)NC)C(=O)N87)c7ccccc7)cc6)nn5)nn4)cc3)N2C1=O [SH-155] | < 100 nM | < 10 nM | < 100 nM
6 | CN[C@@H](C)C(=O)N[C@H]1CCCC[C@H]2CC[C@@H](C(=O)N[C@@H](c3ccccc3)c3cn(CCOCCOCCn4cc([C@@H](NC(=O)[C@@H]5CC[C@@H]6CCCC[C@H](NC(=O)[C@H](C)NC)C(=O)N65)c5ccccc5)nn4)nn3)N2C1=O [SH-158] | < 1000 nM | < 10 nM | < 1000 nM
7 | CN[C@@H](C)C(=O)N[C@H]1CCCC[C@H]2CC[C@@H](C(=O)N[C@@H](c3ccccc3)c3cn(CCOCCn4cc([C@@H](NC(=O)[C@@H]5CC[C@@H]6CCCC[C@H](NC(=O)[C@H](C)NC)C(=O)N65)c5ccccc5)nn4)nn3)N2C1=O [SH-159] | < 1000 nM | < 10 nM | < 1000 nM
8 | CN[C@@H](C)C(=O)N[C@H]1CCCC[C@H]2CC[C@@H](C(=O)N[C@@H](c3ccccc3)c3cn(CCCCn4cc([C@@H](NC(=O)[C@@H]5CC[C@@H]6CCCC[C@H](NC(=O)[C@H](C)NC)C(=O)N65)c5ccccc5)nn4)nn3)N2C1=O [SH-166] | < 1000 nM | < 10 nM | < 1000 nM
9 | CN[C@@H](C)C(=O)N[C@H]1CCCC[C@H]2CC[C@@H](C(=O)N[C@@H](c3ccccc3)c3cn(CCCCCCCCn4cc([C@@H](NC(=O)[C@@H]5CC[C@@H]6CCCC[C@H](NC(=O)[C@H](C)NC)C(=O)N65)c5ccccc5)nn4)nn3)N2C1=O [SH-167] | < 10 nM |  | < 10 nM
10 | CN[C@@H](C)C(=O)N[C@H]1CC[C@H](n2cc(COCc3cn([C@H]4CC[C@H](NC(=O)[C@H](C)NC)C(=O)N5[C@H](CC[C@H]5C(=O)NC(c5ccccc5)c5ccccc5)C4)nn3)nn2)C[C@H]2CC[C@@H](C(=O)NC(c3ccccc3)c3ccccc3)N2C1=O [SH-176] | < 100 nM | < 10 nM | 
11 | CN[C@@H](C)C(=O)N[C@H]1CC[C@@H](n2cc(COCc3cn([C@@H]4CC[C@H](NC(=O)[C@H](C)NC)C(=O)N5[C@H](CC[C@H]5C(=O)NC(c5ccccc5)c5ccccc5)C4)nn3)nn2)C[C@H]2CC[C@@H](C(=O)NC(c3ccccc3)c3ccccc3)N2C1=O [SH-177] | < 100 nM | < 10 nM | 
12 | CN[C@@H](C)C(=O)N[C@H]1CCCC[C@H]2CC[C@@H](C(=O)N[C@@H](c3ccccc3)c3cn(CCN4CCN(CCn5cc([C@@H](NC(=O)[C@@H]6CC[C@@H]7CCCC[C@H](NC(=O)[C@H](C)NC)C(=O)N76)c6ccccc6)nn5)CC4)nn3)N2C1=O [SH-178] | < 10000 nM | < 100 nM | 
13 | C[C@H](NCCO)C(=O)N[C@H]1CCCC[C@H]2CC[C@@H](C(=O)N[C@@H](c3ccccc3)c3cn(CCN4CCN(CCn5cc([C@@H](NC(=O)[C@@H]6CC[C@@H]7CCCC[C@H](NC(=O)[C@H](C)NCCO)C(=O)N76)c6ccccc6)nn5)CC4)nn3)N2C1=O [SH-179] | < 10000 nM | < 100 nM | 
14 | C[C@H](NCCO)C(=O)N[C@H]1CCCC[C@H]2CC[C@@H](C(=O)N[C@@H](c3ccccc3)c3cn(CCCCc4ccc(CCCCn5cc([C@@H](NC(=O)[C@@H]6CC[C@@H]7CCCC[C@H](NC(=O)[C@H](C)NCCO)C(=O)N76)c6ccccc6)nn5)cc4)nn3)N2C1=O [SH-180] | < 1000 nM | < 100 nM | < 1000 nM
15 | CN[C@@H](C)C(=O)N[C@H]1CCCC[C@H]2CC[C@@H](C(=O)N[C@@H](c3ccc(F)cc3)c3cn(CCN4CCN(CCn5cc([C@@H](NC(=O)[C@@H]6CC[C@@H]7CCCC[C@H](NC(=O)[C@H](C)NC)C(=O)N76)c6ccc(F)cc6)nn5)CC4)nn3)N2C1=O [SH-181] | < 10000 nM | < 100 nM | 
16 | C[C@H](NCCO)C(=O)N[C@H]1CCCC[C@H]2CC[C@@H](C(=O)N[C@@H](c3ccc(F)cc3)c3cn(CCN4CCN(CCn5cc([C@@H](NC(=O)[C@@H]6CC[C@@H]7CCCC[C@H](NC(=O)[C@H](C)NCCO)C(=O)N76)c6ccc(F)cc6)nn5)CC4)nn3)N2C1=O [SH-183] | < 10000 nM | < 100 nM | 
17 | CNC(Cc1c[nH]c2ccccc12)C(=O)NC1CCCCC2CCC(C(=O)NC(c3ccccc3)c3cn(CCCCc4ccc(CCCCn5cc(C(NC(=O)C6CCC7CCCCC(NC(=O)C(Cc8c[nH]c9ccccc89)NC)C(=O)N76)c6ccccc6)nn5)cc4)nn3)N2C1=O (stereo not shown) [SH-187] |  | > 10000 nM | 
18 | CN[C@@H](C)C(=O)N[C@H]1CCCC[C@H]2CC[C@@H](C(=O)N[C@H](c3ccccc3)c3cn(CCCCc4ccc(CCCCn5cc([C@H](NC(=O)[C@@H]6CC[C@@H]7CCCC[C@H](NC(=O)[C@H](C)NC)C(=O)N76)c6ccccc6)nn5)cc4)nn3)N2C1=O [SH-206] | < 1000 nM |  | < 1000 nM
19 | CN[C@@H](C)C(=O)N[C@H]1CN(Cc2ccc(CN3CC[C@H]4CC[C@@H](C(=O)NC(c5ccccc5)c5ccccc5)N4C(=O)[C@@H](NC(=O)[C@H](C)NC)C3)cc2)CC[C@H]2CC[C@@H](C(=O)NC(c3ccccc3)c3ccccc3)N2C1=O [YP-317] | < 100 nM | < 100 nM | 
20 | CN[C@@H](C)C(=O)N[C@H]1CN(C(=O)CCCCCCCCC(=O)N2CC[C@H]3CCC(C(=O)NC(c4ccccc4)c4ccccc4)N3C(=O)[C@@H](NC(=O)[C@H](C)NC)C2)CC[C@H]2CCC(C(=O)NC(c3ccccc3)c3ccccc3)N2C1=O (stereo partly shown) [YP-381] | < 10 nM |  | < 10 nM
21 | CN[C@@H](C)C(=O)N[C@H]1CN(C(=O)CCCCCCCCCCC(=O)N2CC[C@H]3CC[C@@H](C(=O)NC(c4ccccc4)c4ccccc4)N3C(=O)[C@@H](NC(=O)[C@H](C)NC)C2)CC[C@H]2CC[C@@H](C(=O)NC(c3ccccc3)c3ccccc3)N2C1=O [YP-383] | < 10 nM |  | < 10 nM
22 | CN[C@@H](C)C(=O)N[C@H]1CN(C(=O)CCCCCCC(=O)N2CC[C@H]3CCC(C(=O)NC(c4ccccc4)c4ccccc4)N3C(=O)[C@@H](NC(=O)[C@H](C)NC)C2)CC[C@H]2CCC(C(=O)NC(c3ccccc3)c3ccccc3)N2C1=O (stereo partly shown) [YP-385] | < 10 nM |  | < 10 nM
